Test results as given in US20200308616A1, “PROCESS FOR PRODUCING HIGH PURITY STEVIOL GLYCOSIDES” (PureCircle Sdn Bhd, priority 2015, published 2020).
Where two headings read alike, the source gives them in different places.

Tests used:
microbial strains = assay: Indirect assay: growth with RebA as the only carbon source and RebA degradation by the soluble fraction of the cell extract; assay type: cell-based; conditions: defined mineral medium, 10 g/L RebA as only carbon source, 28° C., 72 h; 19 microbial strains
Method: Microbial strains were assayed for their ability to assimilate RebA from the culture medium by growing the strains in a defined mineral medium with RebA as the only carbon source.
This medium contained (per liter): 10 g RebA, 5 g (NH4)2SO4, 3 g KH2PO4, 0.5 g MgSO4×7H2O, 15 mg EDTA, 4.5 mg ZnSO4×7H2O, 0.3 mg CoCl2×6H2O, 1 mg MnCl2×4H2O, 0.3 mg CuSO4×5H2O, 4.5 mg CaCl2×2H2O, 3 mg FeSO4×7H2O, 0.4 mg NaMoO4×2H2O, 1 mg H3BO3, 0.1 mg KI, 0.05 mg biotin, 1 mg calcium pantothenate, 25 mg inositol, 1 mg thiamine HCl, 1 mg pyridoxine HCl, 0.2 mg para-aminobenzoic acid. A volume of 1 mL culture medium was inoculated with 10 μl of an overnight culture grown.
All cultivations were performed in 96 square well plates on a laboratory shaker with 300 rpm and 5.1 cm shaking diameter at 28° C. for 72 h. Growth was monitored by mixing 50 μL or culture volume with 50 μL ethanol in a 96 well plate and subsequently measuring the optical density at 600 nm (OD600) in a spectrophotometer (Molecular Devices). […]
Then, 70 μL of a 2 g/L RebA solution was added to the soluble fraction before incubation at 72 h at 28° C. RebA was detected by LC-MS set to single ion monitoring (SIM) mode, negative mode, m/z=965.60.
The difference in RebA concentration between the start and the end of the incubation was calculated for each soluble fraction. […]

gut microbiome = conditions: cited from earlier work
[1] = test system: Kluyveromyces marxianus strain; assay: Direct assay: quantification of intracellular RebA by LC-MS; assay type: cell-based
Method: The selected microbial strain was cultivated in a defined mineral medium with RebA as the only carbon source. This medium contained (per liter): 9 g RebA, 5 g (NH4)2SO4, 3 g KH2PO4, 0.5 g MgSO4×7H2O, 15 mg EDTA, 4.5 mg ZnSO4×7H2O, 0.3 mg CoCl2×6H2O, 1 mg MnCl2×4H2O, 0.3 mg CuSO4×5H2O, 4.5 mg CaCl2×2H2O, 3 mg FeSO4×7H2O, 0.4 mg NaMoO4×2H2O, 1 mg H3BO3, 0.1 mg KI, 0.05 mg biotin, 1 mg calcium pantothenate, 25 mg inositol, 1 mg thiamine HCl, 1 mg pyridoxine HCl, 0.2 mg para-aminobenzoic acid. A volume of 20 mL culture medium was inoculated with a single colony. All cultivations were performed in 25 mL culture medium in a 300 mL non-baffled shake flask on a laboratory shaker with 250 rpm and 2.5 cm shaking diameter at 28° C. for 72 h. The complete culture was transferred to a beaker containing 125 mL of a solution containing 45 ppm 4-Nitrophenyl β-D-glucopyranoside in 60% methanol in water that was pre-cooled to −40° C. The mixture was then transferred to three 50 mL centrifugation tubes that were pre-cooled on dry ice and centrifuged below 0° C. at 4248 g for 10 min. Subsequently, an aliquot of the supernatant (quench) was stored at −80° C. and the rest of the supernatant was discarded, while the pellet was kept on dry ice. Then 5 mL 60% methanol in water pre-cooled on dry ice was used to re-suspend the 3 pellets. The re-suspended pellets were transferred to a single 15 mL centrifugation tube precooled on dry ice and centrifuged below 0° C. at 4248 g for 10 min. Then the supernatant was discarded and the pellet was re-suspended in fresh 5 mL 60% methanol in water pre-cooled on dry ice and the suspension was centrifuged below 0° C. at 4248 g for 10 min. Then the supernatant was discarded and the pellet was re-suspended again in fresh 5 mL 60% methanol in water pre-cooled on dry ice and the suspension was centrifuged below 0° C. at 4248 g for 10 min. […] The concentration of RebA in quench, wash, and cell extract was quantified by LC-MS (FIG. 2), in which the error bars indicate the standard error of mean from 2 parallel experiments.

SMILES | assimilation of RebA from the culture medium (microbial strains) | degradation by the gut microbiome (gut microbiome) | concentration of RebA in the cell extract versus quench and wash solutions ([1]; 9 g/L RebA as only carbon source, 72 h, LC-MS, FIG. 2, 2 parallel experiments) | concentration of RebA in the wash solution versus quench solution ([1]; LC-MS, FIG. 2) | intracellular accumulation of RebA ([1]; conclusion from cell extract versus quench and wash concentrations) | degradation by the gut microbiome (gut microbiome; Gardana et al., 2003)
C=C1C[C@@]23CC[C@H]4[C@@](C)(CCC[C@@]4(C)C(=O)O[C@@H]4O[C@H](CO)[C@@H](O)[C@H](O)[C@H]4O)[C@@H]2CC[C@]1(O[C@@H]1O[C@H](CO)[C@@H](O)[C@H](O[C@@H]2O[C@H](CO)[C@@H](O)[C@H](O)[C@H]2O)[C@H]1O[C@@H]1O[C@H](CO)[C@@H](O)[C@H](O)[C@H]1O)C3 [RebA, Rebaudioside A] | found to assimilate RebA | glucose residues are cleaved off | exceeds that in the quench and wash solutions | higher than in the quench solution | accumulated intracellularly | –
C=C1C[C@@]23CC[C@H]4[C@@](C)(CCC[C@@]4(C)C(=O)O)[C@@H]2CC[C@]1(O)C3 [steviol] | – | – | – | – | – | not metabolized further
